Tests used:
[1] = target: T1, Tyrosine-protein phosphatase non-receptor type 1 (Homo sapiens, UniProt P18031); assay: Inhibition of PTP1B (unknown origin) by DAS-ELISA
T1 sequence (P18031 whole entry): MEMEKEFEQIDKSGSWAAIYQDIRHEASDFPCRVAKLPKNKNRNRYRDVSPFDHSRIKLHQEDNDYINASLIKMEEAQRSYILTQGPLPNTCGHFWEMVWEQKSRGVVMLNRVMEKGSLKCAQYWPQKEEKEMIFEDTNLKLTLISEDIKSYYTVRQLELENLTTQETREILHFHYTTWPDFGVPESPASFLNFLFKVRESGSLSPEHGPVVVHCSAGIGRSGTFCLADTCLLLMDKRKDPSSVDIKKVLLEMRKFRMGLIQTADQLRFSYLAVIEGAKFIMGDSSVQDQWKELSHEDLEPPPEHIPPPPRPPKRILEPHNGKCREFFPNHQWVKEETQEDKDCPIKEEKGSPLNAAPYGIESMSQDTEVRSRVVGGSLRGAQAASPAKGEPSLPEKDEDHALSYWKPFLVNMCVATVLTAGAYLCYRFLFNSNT

Homo sapiens [2] = species: Homo sapiens; assay: Selectivity ratio of IC50 for TCPTP (unknown origin) to IC50 for PTP1B (unknown origin) by DAS-ELISA
[3] = target: T2, Tyrosine-protein phosphatase non-receptor type 2 (Homo sapiens, UniProt P17706); assay: Inhibition of TCPTP (unknown origin) by DAS-ELISA
T2 sequence (P17706 whole entry): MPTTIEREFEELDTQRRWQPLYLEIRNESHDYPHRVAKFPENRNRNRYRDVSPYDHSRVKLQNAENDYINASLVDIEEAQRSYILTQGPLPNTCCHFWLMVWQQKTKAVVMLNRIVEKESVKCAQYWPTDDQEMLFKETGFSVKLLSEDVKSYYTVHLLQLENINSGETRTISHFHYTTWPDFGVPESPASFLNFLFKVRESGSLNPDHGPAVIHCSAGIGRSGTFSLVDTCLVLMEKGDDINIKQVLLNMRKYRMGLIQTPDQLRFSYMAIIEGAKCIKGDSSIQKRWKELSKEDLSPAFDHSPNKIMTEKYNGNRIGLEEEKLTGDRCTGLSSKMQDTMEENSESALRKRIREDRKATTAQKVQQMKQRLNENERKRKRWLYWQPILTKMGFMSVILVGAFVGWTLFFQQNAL

Homo sapiens [4] = species: Homo sapiens; assay: Selectivity ratio of IC50 for CDC25B (unknown origin) to IC50 for PTP1B (unknown origin) by DAS-ELISA
[5] = target: T3, Tyrosine-protein phosphatase non-receptor type 1 (Homo sapiens) (UniProt P18031); assay: Inhibition of PTP1B (unknown origin) at 10 micromol/L by DAS-ELISA; conditions: dose 10.0 µmol/L
T3 sequence (whole entry): T1 sequence (P18031 whole entry)

[6] = target: T4, M-phase inducer phosphatase 2 (Homo sapiens, UniProt P30305); assay: Inhibition of CDC25B (unknown origin) by DAS-ELISA
T4 sequence (P30305 whole entry): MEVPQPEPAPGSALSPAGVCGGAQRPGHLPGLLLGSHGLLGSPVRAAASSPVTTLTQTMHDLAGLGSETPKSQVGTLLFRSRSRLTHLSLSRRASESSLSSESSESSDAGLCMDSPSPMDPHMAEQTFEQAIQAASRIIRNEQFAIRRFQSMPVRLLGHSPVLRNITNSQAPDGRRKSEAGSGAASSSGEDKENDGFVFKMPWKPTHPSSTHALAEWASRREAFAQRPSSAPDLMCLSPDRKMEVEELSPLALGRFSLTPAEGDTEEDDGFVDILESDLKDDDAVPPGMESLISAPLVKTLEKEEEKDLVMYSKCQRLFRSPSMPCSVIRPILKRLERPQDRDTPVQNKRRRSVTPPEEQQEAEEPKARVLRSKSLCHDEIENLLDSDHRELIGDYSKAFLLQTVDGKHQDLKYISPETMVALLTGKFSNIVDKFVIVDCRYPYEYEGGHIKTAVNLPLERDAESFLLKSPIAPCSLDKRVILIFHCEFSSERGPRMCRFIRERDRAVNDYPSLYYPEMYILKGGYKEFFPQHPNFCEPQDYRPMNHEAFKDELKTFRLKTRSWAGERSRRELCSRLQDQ

Q: `C[C@@]12CC[C@@H]3[C@@](CC[C@H]4[C@@]3(C)CCC[C@@]4(C)C(=O)OCc3ccc(Br)cc3)(CC1=O)C2` was tested. Which IC50 [1] did it give?
A: 330 nM

Q: What about the Ratio IC50 (Homo sapiens [2]) of the same compound?
A: 3.5

Q: What about the IC50 [3] of the same compound?
A: 3240 nM

Q: What about the Ratio IC50 (Homo sapiens [4]) of the same compound?
A: 6

Q: And the inhibition [5]?
A: 79.6%

Q: What about the IC50 [6] of the same compound?
A: 3.55 µM

Q: Which inhibition [5] does the source give for `C[C@@]12CC[C@@H]3[C@@](CC[C@H]4[C@@]3(C)CCC[C@@]4(C)C(=O)OCCN3CCCCC3)(CC1=O)C2` here?
A: 74.2%

Q: For `C[C@@]12CC[C@@H]3[C@@](CC[C@H]4[C@@]3(C)CCC[C@@]4(C)C(=O)OCCCCN3CCCCC3)(CC1=O)C2`, which inhibition [5] is on record?
A: 77.7%

Q: Which inhibition [5] does the source give for `C[C@@]12CC[C@@H]3[C@@](CC[C@H]4[C@@]3(C)CCC[C@@]4(C)C(=O)OCc3ccccc3Br)(CC1=O)C2` here?
A: 50.3%

Q: How did the inhibition [5] turn out when `C[C@@]12CC[C@@H]3[C@@](CC[C@H]4[C@@]3(C)CCC[C@@]4(C)C(=O)O)(C/C1=N\O)C2` was run?
A: 61.9%

Q: How did the inhibition [5] turn out when `C[C@@]12CC[C@@H]3[C@@](CC[C@H]4[C@@]3(C)CCC[C@@]4(C)C(=O)OCc3cccc(C#N)c3)(CC1=O)C2` was run?
A: 76%

Q: `C[C@@]12CC[C@@H]3[C@@](CC[C@H]4[C@@]3(C)CCC[C@@]4(C)C(=O)O)(C[C@H]1O)C2` was tested. Which inhibition [5] did it give?
A: 36.2%

Q: `CCCOC(=O)[C@]1(C)CCC[C@@]2(C)[C@@H]3CC[C@@]4(C)C[C@]3(CC[C@@H]21)C/C4=N\O` was tested. Which inhibition [5] did it give?
A: 76.3%

Q: `CCOC(=O)[C@]1(C)CCC[C@@]2(C)[C@@H]3CC[C@@]4(C)C[C@]3(CC[C@@H]21)C[C@H]4O` was tested. Which inhibition [5] did it give?
A: 67.2%

Q: `CC(=O)O[C@@H]1C[C@]23CC[C@H]4[C@@](C)(CCC[C@@]4(C)C(=O)O)[C@@H]2CC[C@@]1(C)C3` was tested. Which inhibition [5] did it give?
A: 74%

Q: What does the source list for `CCOC(=O)[C@]1(C)CCC[C@@]2(C)[C@@H]3CC[C@@]4(C)C[C@]3(CC[C@@H]21)C[C@H]4OC(=O)c1ccc(O)cc1`?
A: IC50 [1]: 360 nM; Ratio IC50 (Homo sapiens [2]): 3.5; IC50 [3]: 2630 nM; Ratio IC50 (Homo sapiens [4]): 6; inhibition [5]: 79%; IC50 [6]: 2.34 µM

Q: For `C[C@@]12CC[C@@H]3[C@@](CC[C@H]4[C@@]3(C)CCC[C@@]4(C)C(=O)OCc3ccccc3)(CC1=O)C2`, which inhibition [5] is on record?
A: 52.4%

Q: Which inhibition [5] does the source give for `CCCOC(=O)[C@]1(C)CCC[C@@]2(C)[C@@H]3CC[C@@]4(C)C[C@]3(CC[C@@H]21)CC4=O` here?
A: 61.9%

Q: `CCOC(=O)[C@]1(C)CCC[C@@]2(C)[C@@H]3CC[C@@]4(C)C[C@]3(CC[C@@H]21)CC4=O` was tested. Which inhibition [5] did it give?
A: 73.9%

Q: Which inhibition [5] does the source give for `COC(=O)[C@]1(C)CCC[C@@]2(C)[C@@H]3CC[C@@]4(C)C[C@]3(CC[C@@H]21)C/C4=N\O` here?
A: 22%

Q: `COC(=O)[C@]1(C)CCC[C@@]2(C)[C@@H]3CC[C@@]4(C)C[C@]3(CC[C@@H]21)CC4=O` was tested. Which inhibition [5] did it give?
A: 70.1%

Q: How did the inhibition [5] turn out when `C[C@@]12CC[C@@H]3[C@@](CC[C@H]4[C@@]3(C)CCC[C@@]4(C)C(=O)OCCCCBr)(CC1=O)C2` was run?
A: 70.9%

Q: How did the inhibition [5] turn out when `CCOC(=O)[C@]1(C)CCC[C@@]2(C)[C@@H]3CC[C@@]4(C)C[C@]3(CC[C@@H]21)C/C4=N\O` was run?
A: 50.8%

Q: For `C[C@@]12CC[C@@H]3[C@@](CC[C@H]4[C@@]3(C)CCC[C@@]4(C)C(=O)OCc3ccccc3I)(CC1=O)C2`, which IC50 [1] is on record?
A: 400 nM

Q: What about the Ratio IC50 (Homo sapiens [2]) of the same compound?
A: 3.5

Q: And the IC50 [3]?
A: 1410 nM

Q: And the Ratio IC50 (Homo sapiens [4])?
A: 6

Q: What about the inhibition [5] of the same compound?
A: 82.6%

Q: And the IC50 [6]?
A: 3.24 µM

Q: How did the inhibition [5] turn out when `CCOC(=O)[C@]1(C)CCC[C@@]2(C)[C@@H]3CC[C@@]4(C)C[C@]3(CC[C@@H]21)C/C4=N\OC` was run?
A: 71.5%

Q: With `C[C@@]12CC[C@@H]3[C@@](CC[C@H]4[C@@]3(C)CCC[C@@]4(C)C(=O)OCc3ccccc3Cl)(CC1=O)C2` as the compound, how does the inhibition [5] read?
A: 43.8%

Q: What does the source list for `C[C@@]12CC[C@@H]3[C@@](CC[C@H]4[C@@]3(C)CCC[C@@]4(C)C(=O)O)(CC1=O)C2` [ISOSTEVIOL]?
A: IC50 [1]: 2270 nM; IC50 [3]: 1580 nM; inhibition [5]: 63.6%; IC50 [6]: 2.09 µM

Q: With `C[C@@]12CC[C@@H]3[C@@](CC[C@H]4[C@@]3(C)CCC[C@@]4(C)C(=O)OCCBr)(CC1=O)C2` as the compound, how does the inhibition [5] read?
A: 73.6%

Q: `Cc1ccc(S(=O)(=O)N/N=C2/C[C@]34CC[C@H]5[C@@](C)(CCC[C@@]5(C)C(=O)O)[C@@H]3CC[C@@]2(C)C4)cc1` was tested. Which inhibition [5] did it give?
A: 75.3%

Q: For `CCOC(=O)[C@]1(C)CCC[C@@]2(C)[C@@H]3CC[C@@]4(C)C[C@]3(CC[C@@H]21)C[C@H]4OC(=O)c1ccccc1`, which inhibition [5] is on record?
A: 75.5%

Q: `Cc1ccc(COC(=O)[C@]2(C)CCC[C@@]3(C)[C@@H]4CC[C@@]5(C)C[C@]4(CC[C@@H]32)CC5=O)cc1` was tested. Which inhibition [5] did it give?
A: 71.8%

Q: Which results are given for `C[C@@]12CC[C@@H]3[C@@](CC[C@H]4[C@@]3(C)CCC[C@@]4(C)C(=O)OCCN3CCNCC3)(CC1=O)C2`?
A: IC50 [1]: 800 nM; inhibition [5]: 78.5%

Q: With `CCOC(=O)[C@]1(C)CCC[C@@]2(C)[C@@H]3CC[C@@]4(C)C[C@]3(CC[C@@H]21)[C@H](Br)C4=O` as the compound, how does the IC50 [1] read?
A: 240 nM

Q: What about the Ratio IC50 (Homo sapiens [2]) of the same compound?
A: 7

Q: What about the IC50 [3] of the same compound?
A: 1700 nM

Q: What about the Ratio IC50 (Homo sapiens [4]) of the same compound?
A: 14

Q: What about the inhibition [5] of the same compound?
A: 81.7%

Q: What about the IC50 [6] of the same compound?
A: 3.31 µM

Q: With `C[C@@]12CC[C@@H]3[C@@](CC[C@H]4[C@@]3(C)CCC[C@@]4(C)C(=O)OCCCCCBr)(CC1=O)C2` as the compound, how does the inhibition [5] read?
A: 71.9%

— ChEMBL document CHEMBL5257065, “Isosteviol derivatives as protein tyrosine Phosphatase-1B inhibitors: Synthesis, biological evaluation and molecular docking” (Bioorg Med Chem, 2023)
